According to ChEMBL document CHEMBL5365473, “Novel Sulfonylurea-Based NLRP3 Inflammasome Inhibitor for Efficient Treatment of Nonalcoholic Steatohepatitis, Endotoxic Shock, and Colitis” (J Med Chem, 2023):
Each block holds one compound with its values, some of them ahead of it. The source made the active and inactive calls. The calls are words filed in the database; no cut-off is given here.

Tests used:
[1] = molecular target: NACHT, LRR and PYD domains-containing protein 3 (Mus musculus, UniProt Q8R4B8); assay: Inhibition of NLRP3 inflammasome in mouse […] cells assessed as inhibition of LPS/ATP-induced IL-1 beta secretion primed with LPS for 4.5 hs followed by incubation with compound for 30 mins and later stimulation with ATP for 30 mins by ELISA; format: cell-based, J774.A1
Sequence of NACHT, LRR and PYD domains-containing protein 3 (Q8R4B8 whole entry, the tested form may be a part): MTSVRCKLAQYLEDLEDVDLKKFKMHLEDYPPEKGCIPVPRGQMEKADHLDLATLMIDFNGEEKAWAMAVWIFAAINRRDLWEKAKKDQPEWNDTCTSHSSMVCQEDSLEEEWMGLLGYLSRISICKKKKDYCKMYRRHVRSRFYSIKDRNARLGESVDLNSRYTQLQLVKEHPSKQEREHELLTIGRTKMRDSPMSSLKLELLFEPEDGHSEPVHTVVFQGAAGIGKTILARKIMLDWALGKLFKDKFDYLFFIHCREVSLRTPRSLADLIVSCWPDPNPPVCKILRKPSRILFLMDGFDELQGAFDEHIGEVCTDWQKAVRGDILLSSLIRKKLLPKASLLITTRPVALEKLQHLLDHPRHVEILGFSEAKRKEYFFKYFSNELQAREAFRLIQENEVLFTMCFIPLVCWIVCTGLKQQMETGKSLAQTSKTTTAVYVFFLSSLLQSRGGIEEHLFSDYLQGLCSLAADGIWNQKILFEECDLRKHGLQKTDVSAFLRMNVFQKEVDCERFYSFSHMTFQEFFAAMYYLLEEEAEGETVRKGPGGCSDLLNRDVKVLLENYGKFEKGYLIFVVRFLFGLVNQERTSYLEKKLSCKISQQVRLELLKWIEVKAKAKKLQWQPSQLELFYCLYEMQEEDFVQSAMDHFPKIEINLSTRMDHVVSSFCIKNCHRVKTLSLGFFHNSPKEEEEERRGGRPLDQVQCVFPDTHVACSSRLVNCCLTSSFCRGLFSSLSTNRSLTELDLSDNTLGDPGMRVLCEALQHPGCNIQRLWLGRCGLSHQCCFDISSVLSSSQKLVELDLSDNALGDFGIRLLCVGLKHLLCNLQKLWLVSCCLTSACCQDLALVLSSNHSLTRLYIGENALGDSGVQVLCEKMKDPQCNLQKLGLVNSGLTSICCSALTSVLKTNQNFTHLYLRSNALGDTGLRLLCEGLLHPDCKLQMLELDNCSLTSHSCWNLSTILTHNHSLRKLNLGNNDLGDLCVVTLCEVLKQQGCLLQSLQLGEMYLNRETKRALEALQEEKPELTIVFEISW

Mus musculus [2] = assay: Antiinflammatory activity against MCD diet-induced NASH C57BL/6 mouse model assessed as reduction in balloon dilatation in liver at 40 mg/kg, po administered via gavage for 5 weeks by H and E staining based analysis; format: functional, organism-based
[3] = Oral bioavailability in C57BL/6 mouse at 20 mg/kg by LC-MS/MS analysis; format: ADME, organism-based; conditions: in vivo
Mus musculus [4] = assay: Antiinflammatory activity against MCD diet-induced NASH C57BL/6 mouse model assessed as reduction in liver fibrosis at 40 mg/kg, po administered via gavage for 5 weeks by Sirius red staining based analysis; format: functional, organism-based
Mus musculus [5] = assay: Antiinflammatory activity against MCD diet-induced NASH C57BL/6 mouse model assessed as reduction in liver steatosis at 40 mg/kg, po administered via gavage for 5 weeks by Masson's trichrome staining based analysis; format: functional, organism-based
Mus musculus [6] = assay: Antiinflammatory activity against MCD diet-induced NASH C57BL/6 mouse model assessed as reduction in liver steatosis at 40 mg/kg, po administered via gavage for 5 weeks by Sirius red staining based analysis; format: functional, organism-based
Mus musculus [7] = assay: Antiinflammatory activity against DSS-induced ulcerative colitis C57BL/6 mouse assessed as reduction in body weight loss at 10 mg/kg, ip administered for 9 days and measured daily; format: functional, organism-based; conditions: time 9.0 day
[8] = molecular target: NACHT, LRR and PYD domains-containing protein 3 (Mus musculus) (UniProt Q8R4B8); conditions: J774.A1, dose 30.0 nM, time 3.0 hrs
Sequence of NACHT, LRR and PYD domains-containing protein 3 (Mus musculus) (Q8R4B8 whole entry, the tested form may be a part): as above

Mus musculus [9] = assay: Antiinflammatory activity against MCD diet-induced NASH C57BL/6 mouse model assessed as improvement in liver morphology at 40 mg/kg, po administered via gavage for 5 weeks by H and E staining based analysis; format: functional, organism-based
Mus musculus [10] = assay: Antiinflammatory activity against DSS-induced ulcerative colitis C57BL/6 mouse assessed as reduction in inflammatory cells infiltration in lamina propria in colon at 10 mg/kg, ip administered for 9 days and measured on day 10 by H and E staining based analysis; format: functional, organism-based; conditions: time 10.0 day
Mus musculus [11] = assay: Antiinflammatory activity against MCD diet-induced NASH C57BL/6 mouse model assessed as reduction in TUNEL-positive hepatic cells at 40 mg/kg, po administered via gavage for 5 weeks by TUNEL assay; format: functional, organism-based
Mus musculus [12] = assay: Antiinflammatory activity against DSS-induced ulcerative colitis C57BL/6 mouse assessed as reduction in massive loss of goblet cells in colon at 10 mg/kg, ip administered for 9 days and measured on day 10 by H and E staining based analysis; format: functional, organism-based; conditions: time 10.0 day
Mus musculus [13] = assay: Antiinflammatory activity against MCD diet-induced NASH C57BL/6 mouse model assessed as reduction in liver steatosis at 40 mg/kg, po administered via gavage for 5 weeks by H and E staining based analysis; format: functional, organism-based
L02 = assay: Cytotoxicity against human HL7702 cells assessed as reduction in cell viability at 200 uM measured after 24 hrs by CCK8 assay; format: toxicity, cell-based; conditions: l02, 24 h
Mus musculus [14] = assay: Antiinflammatory activity against DSS-induced ulcerative colitis C57BL/6 mouse assessed as reduction in colon length shortening at 10 mg/kg, ip administered for 9 days and measured on day 10; format: functional, organism-based; conditions: time 10.0 day
Mus musculus [15] = assay: Antiinflammatory activity against DSS-induced ulcerative colitis C57BL/6 mouse assessed as reduction in mucosal barrier disruption in colon at 10 mg/kg, ip administered for 9 days and measured on day 10 by H and E staining based analysis; format: functional, organism-based; conditions: time 10.0 day
Mus musculus [16] = assay: Antiinflammatory activity against DSS-induced ulcerative colitis C57BL/6 mouse assessed as reduction in crypt necrosis in colon at 10 mg/kg, ip administered for 9 days and measured on day 10 by H and E staining based analysis; format: functional, organism-based; conditions: time 10.0 day
Mus musculus [17] = assay: Antiinflammatory activity against MCD diet-induced NASH C57BL/6 mouse model assessed as reduction in immune cell infiltration by measuring reduction in CD45-positive hepatic cells at 40 mg/kg, po administered via gavage for 5 weeks by immunofluorescence staining based analysis; format: functional, organism-based
Mus musculus [18] = assay: Antiinflammatory activity against LPS-induced lethal septic shock C57BL/6 mouse model assessed as reduction in serum IL-1 beta level at 20 to 40 mg/kg, ip administered for 1 hr prior to LPS challenge and measured after 2.5 hrs by ELISA; format: functional, organism-based; conditions: dose 20-40 mg/kg, time 3.5 hrs
Mus musculus [19] = assay: Antiinflammatory activity against LPS-induced lethal septic shock C57BL/6 mouse model assessed as effect on TNF-alpha level at 40 mg/kg, ip administered for 1 hr prior to LPS challenge and measured after 2.5 hrs by ELISA; format: functional, organism-based; conditions: time 3.5 hrs
Mus musculus [20] = assay: Antiinflammatory activity against MCD diet-induced NASH C57BL/6 mouse model assessed as improvement in liver morphology at 40 mg/kg, po administered via gavage for 5 weeks by Masson's trichrome staining based analysis; format: functional, organism-based
Mus musculus [21] = assay: Antiinflammatory activity against MCD diet-induced NASH C57BL/6 mouse model assessed as improvement in liver morphology at 40 mg/kg, po administered via gavage for 5 weeks by Sirius red staining based analysis; format: functional, organism-based
[22] = Effect on immune cell numbers in MCS diet-fed C57BL/6 mouse assessed as effect on F4/80 expression at 40 mg/kg, po administered via gavage for 5 weeks by immunofluorescence staining based analysis; format: toxicity, organism-based; conditions: in vivo, 840 h
Mus musculus [23] = assay: Antiinflammatory activity against MCD diet-induced NASH C57BL/6 mouse model assessed as reduction in balloon dilatation in liver at 40 mg/kg, po administered via gavage for 5 weeks by Sirius red staining based analysis; format: functional, organism-based
[24] = Half life in C57BL/6 mouse at 20 mg/kg, po by LC-MS/MS analysis; format: ADME, organism-based; conditions: in vivo
Mus musculus [25] = assay: Antiinflammatory activity against LPS-induced lethal septic shock C57BL/6 mouse model assessed as increase in animal's survival rate at 20 mg/kg, ip administered for 1 hr prior to LPS challenge and measured for 72 hrs; format: functional; conditions: time 73 hrs
Hepatocyte = assay: Cytotoxicity against mouse primary hepatic cells assessed as reduction in cell viability at 200 uM measured after 24 hrs by CCK8 assay; format: toxicity, cell-based; conditions: hepatocytes
Mus musculus [26] = assay: Antiinflammatory activity against MCD diet-induced NASH C57BL/6 mouse model assessed as reduction in liver fibrosis at 40 mg/kg, po administered via gavage for 5 weeks by H and E staining based analysis; format: functional, organism-based
Mus musculus [27] = assay: Antiinflammatory activity against MCD diet-induced NASH C57BL/6 mouse model assessed as protection against MCD diet-induced increase in liver to body weight ratio at 40 mg/kg, po administered via gavage for 5 weeks; format: functional, organism-based
[28] = molecular target: NACHT, LRR and PYD domains-containing protein 3 (Mus musculus) (UniProt Q8R4B8); conditions: J774.A1, dose 30.0 nM, time 3.0 hrs; remark: listed apart in the source
Mus musculus [29] = assay: Antiinflammatory activity against LPS-induced lethal septic shock C57BL/6 mouse model assessed as increase in animal's survival rate at 40 mg/kg, ip administered for 1 hr prior to LPS challenge and measured for 72 hrs; format: functional; conditions: time 73 hrs
Mus musculus [30] = assay: Antiinflammatory activity against MCD diet-induced NASH C57BL/6 mouse model assessed as reduction in immune cell infiltration by measuring reduction in F4/80-positive hepatic cells at 40 mg/kg, po administered via gavage for 5 weeks by immunofluorescence staining based analysis; format: functional, organism-based
Mus musculus [31] = assay: Antiinflammatory activity against MCD diet-induced NASH C57BL/6 mouse model assessed as reduction in balloon dilatation in liver at 40 mg/kg, po administered via gavage for 5 weeks by Masson's trichrome staining based analysis; format: functional, organism-based
Mus musculus [32] = assay: Antiinflammatory activity against MCD diet-induced NASH C57BL/6 mouse model assessed as reduction in liver fibrosis at 40 mg/kg, po administered via gavage for 5 weeks by Masson's trichrome staining based analysis; format: functional, organism-based
[33] = Effect on immune cell numbers in MCS diet-fed C57BL/6 mouse assessed as effect on CD45 expression at 40 mg/kg, po administered via gavage for 5 weeks by immunofluorescence staining based analysis; format: toxicity, organism-based; conditions: in vivo, 840 h

IC50 [1]: 1.86 µM
Structure (SMILES): CC(C)c1cccc(C(C)C)c1CC(=O)NS(=O)(=O)c1ccc(CN(C)C)cc1

IC50 [1]: 1.12 µM
Structure (SMILES): COC(=O)c1ccc(-c2c3c(c(NC(=O)NS(=O)(=O)c4cc(C(C)(C)O)co4)c4c2CCC4)CCC3)cc1

IC50 [1]: > 5 µM
Structure (SMILES): CC(C)(C)OC(=O)N1CC=C(c2c3c(c(NC(=O)NS(=O)(=O)c4cc(C(C)(C)O)co4)c4c2CCC4)CCC3)CC1

IC50 [1]: > 5 µM
Structure (SMILES): CC(C)(C)OC(=O)Nc1ccc(-c2c3c(c(NC(=O)NS(=O)(=O)c4cc(C(C)(C)O)co4)c4c2CCC4)CCC3)cc1

IC50 [1]: > 5 µM
Structure (SMILES): CC(C)(O)c1coc(S(=O)(=O)NC(=O)Nc2c3c(c(-c4cccc(C#N)c4)c4c2CCC4)CCC3)c1

IC50 [1]: 0.691 µM
Structure (SMILES): CN(C)C(=O)c1cccc(S(=O)(=O)NC(=O)Nc2c3c(cc4c2CCC4)CCC3)c1

IC50 [1]: 0.168 µM
Structure (SMILES): CN(C)Cc1cccc(S(=O)(=O)NC(=O)Nc2c3c(cc4c2CCC4)CCC3)c1

IC50 [1]: > 20 µM
Structure (SMILES): CC(=O)c1cccc(S(=O)(=O)NC(=O)Nc2c3c(cc4c2CCC4)CCC3)c1

IC50 [1]: > 10 µM
Structure (SMILES): CN1CCN(Cc2ccc(S(=O)(=O)NC(=O)Nc3c4c(cc5c3CCC5)CCC4)cc2)CC1

IC50 [1]: > 5 µM
Structure (SMILES): CN(C)c1ccc(-c2c3c(c(NC(=O)NS(=O)(=O)c4cc(C(C)(C)O)co4)c4c2CCC4)CCC3)cc1

IC50 [1]: > 10 µM
Structure (SMILES): Cc1cccc(C)c1NC(=O)NS(=O)(=O)c1ccc(CN(C)C)cc1

IC50 [1]: 1.25 µM
Structure (SMILES): O=C(Nc1c2c(cc3c1CCC3)CCC2)NS(=O)(=O)c1ccc(CN2CCCCC2)cc1

IC50 [1]: 0.063 µM
Structure (SMILES): CCN(C)Cc1ccc(S(=O)(=O)NC(=O)Nc2c3c(cc4c2CCC4)CCC3)cc1

IC50 [1]: > 10 µM
Structure (SMILES): CN(C)c1ccc(S(=O)(=O)NC(=O)Nc2c3c(cc4c2CCC4)CCC3)cc1

IC50 [1]: 1.68 µM
Structure (SMILES): CN(C)Cc1cc(S(=O)(=O)NC(=O)Nc2c3c(cc4c2CCC4)CCC3)ccn1

Structure (SMILES): CC(C)(O)c1coc(S(=O)(=O)NC(=O)Nc2c3c(cc4c2CCC4)CCC3)c1
Activity (Mus musculus [2]): Active
bioavailability [3]: 85.2%
Activity (Mus musculus [4]): Active
Activity (Mus musculus [5]): Active
Activity (Mus musculus [6]): Active
Activity (Mus musculus [7]): Active
inhibition [8]: Active
Activity (Mus musculus [9]): Active
Activity (Mus musculus [10]): Active
Activity (Mus musculus [11]): Active
Activity (Mus musculus [12]): Active
Activity (Mus musculus [13]): Active
Activity (L02): Toxic
Activity (Mus musculus [14]): Active
Activity (Mus musculus [15]): Active
IC50 [1]: 0.014 µM
Activity (Mus musculus [16]): Active
Activity (Mus musculus [17]): inactive
Activity (Mus musculus [18]): Active
Activity (Mus musculus [19]): inactive
Activity (Mus musculus [20]): Active
Activity (Mus musculus [21]): Active
Activity [22]: Non-Toxic
Activity (Mus musculus [23]): Active
half-life [24]: 1.32 h
survival at 20 mg/kg (Mus musculus [25]): 20%
Activity (Hepatocyte): Toxic
Activity (Mus musculus [26]): Active
Activity (Mus musculus [27]): Active
inhibition [28]: Active
survival at 40 mg/kg (Mus musculus [29]): 60%
Activity (Mus musculus [30]): inactive
Activity (Mus musculus [31]): Active
Activity (Mus musculus [32]): Active
Activity [33]: Non-Toxic
